# Like-named read-outs stand apart in the source and are kept apart here.
# How the values were obtained:
# [1] = target: T1, recombinant human His6-GSK-3β (Homo sapiens, UniProt P49841); experiment: GSK-3β kinase assay, [γ32P] transfer to primed glycogen synthase peptide; assay type: biochemical; settings: 10 μM ATP; 10 μM pGSM peptide; 30 minutes at 30° C.; read-out: IC50 (nM), GSK-3β inhibition;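 further: phosphate incorporation quantified by liquid scintillation counting of the filters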
# T1 construct: His6; purchased EMD Biosciences
# T1 sequence (P49841 whole entry): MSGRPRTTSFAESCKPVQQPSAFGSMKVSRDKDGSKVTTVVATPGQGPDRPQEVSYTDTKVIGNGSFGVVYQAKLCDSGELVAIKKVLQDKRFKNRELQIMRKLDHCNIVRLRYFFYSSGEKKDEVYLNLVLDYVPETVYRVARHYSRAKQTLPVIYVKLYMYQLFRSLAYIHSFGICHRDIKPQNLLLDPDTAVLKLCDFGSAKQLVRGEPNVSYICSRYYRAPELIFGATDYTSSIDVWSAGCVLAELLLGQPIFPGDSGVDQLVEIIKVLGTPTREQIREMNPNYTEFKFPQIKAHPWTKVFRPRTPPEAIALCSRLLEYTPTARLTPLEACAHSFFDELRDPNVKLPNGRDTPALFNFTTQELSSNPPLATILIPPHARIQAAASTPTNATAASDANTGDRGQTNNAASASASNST
# CDK-2/cyclinE = CDK-2/cyclinE (Homo sapiens, UniProt P24941); experiment: CDK-2/CyclinE inhibition (Reaction Biology); assay type: biochemical; settings: tested at Reaction Biology, Inc.
# CDK-1/cyclinB = CDK-1/cyclinB (Homo sapiens, UniProt P06493); experiment: CDK panel (Reaction Biology); assay type: biochemical; settings: tested at Reaction Biology, Inc.
# Sequence of CDK-1/cyclinB (P06493 whole entry, species assumed): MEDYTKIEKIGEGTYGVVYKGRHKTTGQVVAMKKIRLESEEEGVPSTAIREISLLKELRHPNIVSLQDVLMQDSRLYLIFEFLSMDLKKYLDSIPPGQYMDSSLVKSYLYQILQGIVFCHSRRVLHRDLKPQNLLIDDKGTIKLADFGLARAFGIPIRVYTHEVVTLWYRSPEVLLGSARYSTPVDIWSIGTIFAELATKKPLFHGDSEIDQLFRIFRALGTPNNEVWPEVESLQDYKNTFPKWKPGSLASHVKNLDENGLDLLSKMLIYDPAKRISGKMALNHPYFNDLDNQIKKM
# Sequence of CDK-1/cyclinB (P14635 whole entry partner, species assumed): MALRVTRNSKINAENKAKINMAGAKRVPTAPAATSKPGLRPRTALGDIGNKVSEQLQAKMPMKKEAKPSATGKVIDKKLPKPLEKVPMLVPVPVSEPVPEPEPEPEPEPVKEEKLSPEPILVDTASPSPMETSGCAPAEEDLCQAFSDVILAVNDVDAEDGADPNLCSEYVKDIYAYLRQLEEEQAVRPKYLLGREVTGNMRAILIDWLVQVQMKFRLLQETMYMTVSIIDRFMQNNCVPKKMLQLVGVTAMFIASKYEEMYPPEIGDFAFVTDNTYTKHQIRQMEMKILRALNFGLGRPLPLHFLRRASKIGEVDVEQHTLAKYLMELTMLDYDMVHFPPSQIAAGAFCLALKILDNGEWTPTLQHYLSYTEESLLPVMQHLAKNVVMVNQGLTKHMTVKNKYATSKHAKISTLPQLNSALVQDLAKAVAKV
# CDK-2/cyclinA = CDK-2/cyclinA (Homo sapiens, UniProt P24941); experiment: CDK panel (Reaction Biology); assay type: biochemical; settings: tested at Reaction Biology, Inc.
# CDK-4/cyclinD1 = CDK-4/cyclinD1 (Homo sapiens, UniProt P11802); experiment: CDK panel (Reaction Biology); assay type: biochemical; settings: tested at Reaction Biology, Inc.
# Sequence of CDK-4/cyclinD1 (P11802 whole entry, species assumed): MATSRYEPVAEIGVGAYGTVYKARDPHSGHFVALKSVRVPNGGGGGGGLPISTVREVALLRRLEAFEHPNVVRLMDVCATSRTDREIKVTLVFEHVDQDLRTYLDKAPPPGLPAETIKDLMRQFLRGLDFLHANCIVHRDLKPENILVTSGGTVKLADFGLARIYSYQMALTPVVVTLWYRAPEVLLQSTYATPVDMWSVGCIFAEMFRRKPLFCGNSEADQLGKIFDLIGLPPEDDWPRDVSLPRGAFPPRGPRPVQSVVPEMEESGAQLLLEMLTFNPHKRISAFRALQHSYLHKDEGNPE
# Sequence of CDK-4/cyclinD1 (P24385 whole entry partner, species assumed): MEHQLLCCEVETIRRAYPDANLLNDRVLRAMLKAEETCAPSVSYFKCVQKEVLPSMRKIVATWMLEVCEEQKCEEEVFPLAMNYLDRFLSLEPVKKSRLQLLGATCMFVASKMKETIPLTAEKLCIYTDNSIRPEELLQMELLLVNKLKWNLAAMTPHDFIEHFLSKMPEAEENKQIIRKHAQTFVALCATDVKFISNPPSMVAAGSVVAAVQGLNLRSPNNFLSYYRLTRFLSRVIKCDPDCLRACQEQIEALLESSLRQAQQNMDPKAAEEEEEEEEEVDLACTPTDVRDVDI
# CDK-6/cyclinD3 = CDK-6/cyclinD3 (Homo sapiens, UniProt Q00534); experiment: CDK panel (Reaction Biology); assay type: biochemical; settings: tested at Reaction Biology, Inc.
# Sequence of CDK-6/cyclinD3 (Q00534 whole entry, species assumed): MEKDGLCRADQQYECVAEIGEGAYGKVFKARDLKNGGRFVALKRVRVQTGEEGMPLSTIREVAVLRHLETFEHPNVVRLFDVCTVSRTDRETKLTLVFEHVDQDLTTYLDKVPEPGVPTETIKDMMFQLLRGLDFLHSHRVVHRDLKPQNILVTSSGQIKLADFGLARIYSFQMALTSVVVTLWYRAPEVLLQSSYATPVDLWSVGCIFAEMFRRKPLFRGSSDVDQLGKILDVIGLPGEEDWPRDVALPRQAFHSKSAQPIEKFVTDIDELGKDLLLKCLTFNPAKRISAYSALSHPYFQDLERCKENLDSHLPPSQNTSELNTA
# Sequence of CDK-6/cyclinD3 (P30281 whole entry partner, species assumed): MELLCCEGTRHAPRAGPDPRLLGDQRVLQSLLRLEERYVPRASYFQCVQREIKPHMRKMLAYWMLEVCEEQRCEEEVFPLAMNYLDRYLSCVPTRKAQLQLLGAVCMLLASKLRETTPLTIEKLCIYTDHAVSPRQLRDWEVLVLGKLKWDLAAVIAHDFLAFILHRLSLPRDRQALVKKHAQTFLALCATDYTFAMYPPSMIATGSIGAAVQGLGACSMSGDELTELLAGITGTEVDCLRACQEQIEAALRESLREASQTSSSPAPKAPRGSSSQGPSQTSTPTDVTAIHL
# CDK-9/cyclinT1 = CDK-9/cyclinT1 (Homo sapiens, UniProt P50750); experiment: CDK panel (Reaction Biology); assay type: biochemical; settings: tested at Reaction Biology, Inc.
# Sequence of CDK-9/cyclinT1 (P50750 whole entry, species assumed): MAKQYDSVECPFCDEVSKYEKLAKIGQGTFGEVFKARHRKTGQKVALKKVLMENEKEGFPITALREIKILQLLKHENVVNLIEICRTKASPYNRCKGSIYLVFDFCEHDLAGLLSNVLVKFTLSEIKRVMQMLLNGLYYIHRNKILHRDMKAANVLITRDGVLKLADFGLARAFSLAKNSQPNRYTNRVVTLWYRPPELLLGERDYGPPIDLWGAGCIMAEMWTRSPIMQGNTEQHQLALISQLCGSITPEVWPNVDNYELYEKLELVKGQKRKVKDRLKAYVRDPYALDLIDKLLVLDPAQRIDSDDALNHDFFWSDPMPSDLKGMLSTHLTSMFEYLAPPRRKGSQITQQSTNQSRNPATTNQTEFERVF
# Sequence of CDK-9/cyclinT1 (O60563 whole entry partner, species assumed): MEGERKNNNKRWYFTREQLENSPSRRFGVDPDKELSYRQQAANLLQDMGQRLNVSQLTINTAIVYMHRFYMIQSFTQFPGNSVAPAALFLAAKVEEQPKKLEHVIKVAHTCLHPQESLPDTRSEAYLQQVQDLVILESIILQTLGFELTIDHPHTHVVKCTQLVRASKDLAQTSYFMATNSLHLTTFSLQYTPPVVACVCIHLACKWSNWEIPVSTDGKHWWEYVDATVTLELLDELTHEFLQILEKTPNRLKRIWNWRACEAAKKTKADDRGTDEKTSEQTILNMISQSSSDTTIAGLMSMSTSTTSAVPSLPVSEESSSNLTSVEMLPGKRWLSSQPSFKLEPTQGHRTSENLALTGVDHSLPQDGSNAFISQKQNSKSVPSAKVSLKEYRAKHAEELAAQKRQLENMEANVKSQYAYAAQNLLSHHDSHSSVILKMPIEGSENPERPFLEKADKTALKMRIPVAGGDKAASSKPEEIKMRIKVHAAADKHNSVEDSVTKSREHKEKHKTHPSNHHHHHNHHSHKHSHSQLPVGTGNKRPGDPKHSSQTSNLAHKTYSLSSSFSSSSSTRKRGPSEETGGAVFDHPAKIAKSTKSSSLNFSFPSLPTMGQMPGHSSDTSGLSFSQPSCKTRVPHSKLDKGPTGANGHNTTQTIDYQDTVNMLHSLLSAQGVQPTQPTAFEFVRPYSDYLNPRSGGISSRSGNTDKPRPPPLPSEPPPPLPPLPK
# CDK-3/cyclinE [2] = target: T2, CDK-3/cyclinE (Homo sapiens, UniProt Q00526); settings: read-out: IC50 (μM) CDK-3/cyclinE; tested at Reaction Biology, Inc.
# CDK-5/P25 = CDK-5/P25 (Homo sapiens, UniProt Q00535); experiment: CDK panel (Reaction Biology); assay type: biochemical; settings: tested at Reaction Biology, Inc.
# Sequence of CDK-5/P25 (Q00535 whole entry, species assumed): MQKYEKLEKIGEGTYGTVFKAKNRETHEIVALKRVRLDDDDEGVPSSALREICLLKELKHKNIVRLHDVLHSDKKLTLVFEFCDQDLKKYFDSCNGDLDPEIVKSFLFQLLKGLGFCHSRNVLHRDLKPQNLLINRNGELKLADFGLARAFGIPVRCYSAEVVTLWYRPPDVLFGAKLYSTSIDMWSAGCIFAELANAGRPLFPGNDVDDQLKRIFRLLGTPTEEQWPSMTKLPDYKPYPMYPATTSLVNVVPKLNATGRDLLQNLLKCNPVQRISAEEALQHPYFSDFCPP
# Sequence of CDK-5/P25 (Q15078 99-307 partner limits assumed, species assumed): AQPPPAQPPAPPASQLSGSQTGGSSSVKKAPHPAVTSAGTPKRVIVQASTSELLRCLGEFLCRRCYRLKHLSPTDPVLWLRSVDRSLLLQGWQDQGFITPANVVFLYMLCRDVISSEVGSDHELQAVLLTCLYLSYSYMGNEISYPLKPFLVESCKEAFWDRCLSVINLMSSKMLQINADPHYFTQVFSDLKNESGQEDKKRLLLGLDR
# CDK-5/P35 = CDK-5/P35 (Homo sapiens, UniProt Q00535); experiment: CDK panel (Reaction Biology); assay type: biochemical; settings: tested at Reaction Biology, Inc.
# Sequence of CDK-5/P35 (Q00535 whole entry, species assumed): as the sequence (Q00535 whole entry, species assumed) above
# Sequence of CDK-5/P35 (Q15078 2-307 partner limits assumed, species assumed): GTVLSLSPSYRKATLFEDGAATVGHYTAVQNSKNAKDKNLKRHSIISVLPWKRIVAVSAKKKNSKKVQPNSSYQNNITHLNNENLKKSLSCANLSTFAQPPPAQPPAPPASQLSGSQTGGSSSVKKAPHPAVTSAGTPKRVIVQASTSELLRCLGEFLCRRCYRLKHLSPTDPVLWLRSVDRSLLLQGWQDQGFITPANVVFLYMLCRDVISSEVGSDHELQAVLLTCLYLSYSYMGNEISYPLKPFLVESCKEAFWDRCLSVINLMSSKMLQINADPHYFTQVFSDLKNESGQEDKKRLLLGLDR
# OVCA432 = experiment: Antiproliferation assay, ovarian cancer cells; assay type: cell-based; settings: ovarian cancer cell proliferation
# Procedure: (§1) The pancreatic cancer cell lines BxPc-3, HupT3, MiaPaCa-2, Panc 04.03, and SU86.86 were obtained from ATCC (Rockville, Md.) and were grown in medium (DMEM or RPMI) containing 10% fetal calf serum and L-glutamine. Pancreatic cancer cells were plated out in duplicate into 6-wells of a 96-well microtiter plate at 2.5−4×10^3 cells per well. Four-hours post plating, individual wells were treated with diluent (DMSO) or varying concentrations of commercial compounds, AR-A014418 and SB216763, or the indicated GSK inhibitors of this invention from a concentration of 1 nM to 50 microM. […] The IC50s were calculated using XLfit (IDBS Limited, Guildford, UK).
# (§2) Similar antiproliferation assays were performed using ovarian cancer cells. Compound 40 is of particular interest for inhibition of ovarian cancer cell proliferation.
# SKOV3 = experiment: Antiproliferation assay, ovarian cancer cells; assay type: cell-based; settings: Homo sapiens, SK-OV-3; ovarian cancer cell proliferation
# Procedure: as §1, §2
# [3] = tested on: M-17 cancer cells co-transfected with α-Syn and DAT; experiment: Neuroprotection against MPP+-mediated cell death, MTT assay; assay type: cell-based; settings: MPP+ 48 h, inhibitor 0.1-10,000 nM
# Text: GSK-3β inhibitors are examined for their capacity to interfere with two of the regulated processes playing an important role in the MPP+-induced model (MPP+ is N-methyl-4-phenylpyridinium) of neurodegeneration: Tau phosphorylation at the PHF-1 binding site (PHF-Tau; epitope which belongs to AD-like Tau antigenicity) and α-Syn-induced toxicity. Compounds are screened in in vitro assays, where their neuroprotective effects to protect against MPP+-mediated cell death was estimated. The cell assays are conducted as follows: M-17 cancer cells are co-transfected with α-Syn and DAT at a 3:1 DNA mimicking that found in Substantia nigra ratio, as we have described previously (Wersinger, C., et al The FASEB journal 2003, 17, 2151-2153). Cells are treated with MPP^+ for 48 h in the absence and presence of increasing amounts of GSK-3β inhibitors [0.1-10,000 nM], and cell death was measured by MTT (Thiazolyl Blue Tetrazolium Bromide) assays. Under these conditions, MPP^+ caused ˜80% cell death.
# CDK-3/cyclinE [4] = target: T2, CDK-3/cyclinE; experiment: biochemical
# HER-1 = HER-1 (Homo sapiens, UniProt P00533); experiment: Kinase panel (Novartis); assay type: biochemical
# KDR = KDR (Homo sapiens, UniProt P35968); experiment: Kinase panel (Novartis); assay type: biochemical
# Flt-3 = Flt-3 (Homo sapiens, UniProt P36888); experiment: Kinase panel (Novartis); assay type: biochemical
# IGF-1R = IGF-1R (Homo sapiens, UniProt P08069); experiment: Kinase panel (Novartis); assay type: biochemical
# Tek = Tek (Homo sapiens, UniProt Q02763); experiment: Kinase panel (Novartis); assay type: biochemical
# c-src = c-src (Homo sapiens, UniProt P12931); experiment: Kinase panel (Novartis); assay type: biochemical
# c-Met = c-Met (Homo sapiens, UniProt P08581); experiment: Kinase panel (Novartis); assay type: biochemical
# Ret = Ret (Homo sapiens, UniProt P07949); experiment: Kinase panel (Novartis); assay type: biochemical
# JAK-2 = JAK-2 (Homo sapiens, UniProt O60674); experiment: Kinase panel (Novartis); assay type: biochemical
# EphB4 = EphB4 (Homo sapiens, UniProt P54760); experiment: Kinase panel (Novartis); assay type: biochemical
# JNK1 = JNK1 (Homo sapiens, UniProt P45983); experiment: Kinase panel (Novartis); assay type: biochemical
# FGFR-3-K650E = FGFR-3-K650E (Homo sapiens, UniProt P22607, K650E); experiment: Kinase panel (Novartis); assay type: biochemical
# Axl = Axl (Homo sapiens, UniProt P30530); experiment: Kinase panel (Novartis); assay type: biochemical
# FAK = FAK (Homo sapiens, UniProt Q05397); experiment: Kinase panel (Novartis); assay type: biochemical
# c-Abl = c-Abl (Homo sapiens, UniProt P00519); experiment: Kinase panel (Novartis); assay type: biochemical
# c-Abl-T3151 = c-Abl-T3151 (Homo sapiens, UniProt P00519, T315I); experiment: Kinase panel (Novartis); assay type: biochemical
# CDK2/A = CDK2/A (Homo sapiens, UniProt P24941); experiment: Kinase panel (Novartis); assay type: biochemical
# PDK1 = target: T3, PDK1 (Homo sapiens, UniProt O15530); experiment: Kinase panel (Novartis); assay type: biochemical
# T3 sequence (O15530 1-556): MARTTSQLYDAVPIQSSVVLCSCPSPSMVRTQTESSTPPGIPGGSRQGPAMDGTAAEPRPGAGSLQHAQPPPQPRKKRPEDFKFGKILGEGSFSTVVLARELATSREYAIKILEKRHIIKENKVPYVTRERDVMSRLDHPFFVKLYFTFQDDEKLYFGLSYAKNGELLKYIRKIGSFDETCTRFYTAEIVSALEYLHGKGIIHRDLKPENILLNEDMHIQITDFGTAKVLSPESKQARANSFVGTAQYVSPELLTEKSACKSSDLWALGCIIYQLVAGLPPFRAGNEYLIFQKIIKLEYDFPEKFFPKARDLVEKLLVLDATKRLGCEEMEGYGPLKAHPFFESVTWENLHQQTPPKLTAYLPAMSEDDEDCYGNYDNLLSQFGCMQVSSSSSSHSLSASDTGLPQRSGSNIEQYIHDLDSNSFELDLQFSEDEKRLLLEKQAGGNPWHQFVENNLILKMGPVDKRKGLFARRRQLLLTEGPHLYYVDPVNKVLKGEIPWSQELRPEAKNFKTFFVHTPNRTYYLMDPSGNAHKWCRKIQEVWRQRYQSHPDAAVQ
# b-Raf-V599E = b-Raf-V599E (Homo sapiens, UniProt P15056, V600E); experiment: Kinase panel (Novartis); assay type: biochemical
# PKCα = PKCα (Homo sapiens, UniProt P17252); experiment: Kinase panel (Novartis); assay type: biochemical
# C57BL/6J mice [5] = experiment: Amphetamine/chlordiazepoxide hyperactivity model of mania, open field locomotor activity; assay type: in vivo; settings: 5-ING-135 50 mg/kg, 5 min pretreatment; amphetamine 4 mg/kg + chlordiazepoxide 2.5 mg/kg; 60 min
# Procedure: Hyperactivity models are often used to mimic the mania associated with bipolar disorder.
# Certain benzofuran-based ligands of this invention were studied in a novel mouse model of mania that has recently been validated with several clinically effective mood stabilizers. […] Mice were then injected with amphetamine (4 mg/kg) or amphetamine (4 mg/kg) and chlordiazepoxide (2.5 mg/kg) and locomotor activity was monitored for 60 min. The open field is a square box surrounded by an array of infra-red beams and their behavior is automatically recorded for 60 minutes in the open field test chamber (10.75″×10.75″×8″H with infra-red (I/R) array, model ENV 510, MED Associates). After this period the animals were returned to their home cages and then to the main colony.
# Control treatments are as indicated. FIG. 1B illustrates similar locomotion activity data of treated mice measured in cm over 5 minute intervals for 60 minutes.
# MIAPaCa-2 = experiment: Antiproliferation MTS assay, pancreatic cancer cells; assay type: cell-based; settings: Homo sapiens
# HupT3 = experiment: as above; assay type: cell-based; settings: Homo sapiens, HuP-T3, as reported in Gaisina et al. (2009) J. Med. Chem. 52(7), 1853-1863
# [6] = Passage of the brain-blood barrier in animal models; assay type: in vivo; settings: as assessed in animal models
# C57BL/6J mice [7] = settings: Hanania et al. 2005; cited from earlier work
# mice = settings: Hanania et al. 2005, Brody et al. 2003; cited from earlier work
compound,measurement,setting,value
"Cn1cc(C2=C(c3coc4cc(CO)ccc34)C(=O)NC2=O)c2cc(F)c(Cl)cc21 [Compound 13, 3-(6-Chloro-5-fluoro-1-methyl-1H-indol-3-yl)-4-(6-hydroxymethyl-benzofuran-3-yl)-pyrrole-2,5-dione]",IC50,[1],0.95 ± 0.19 nM
same,IC50,CDK-2/cyclinE,11700 nM
same,IC50,CDK-1/cyclinB,13.4 µM
same,IC50,CDK-2/cyclinA,10.6 µM
same,IC50,CDK-4/cyclinD1,18.3 µM
same,IC50,CDK-6/cyclinD3,11.6 µM
same,IC50,CDK-9/cyclinT1,5.4 µM
same,IC50,CDK-3/cyclinE [2],25.1 µM
"COc1cccc2c(C3=C(c4cn(C)c5cc(Cl)c(F)cc45)C(=O)NC3=O)coc12 [Compound 15, 3-(6-Chloro-5-fluoro-1-methyl-1H-indol-3-yl)-4-(7-methoxy-benzofuran-3-yl)-pyrrole-2,5-dione]",IC50,[1],260 ± 32 nM
same,IC50,CDK-2/cyclinE,99000 nM
same,IC50,CDK-1/cyclinB,46.2 µM
same,IC50,CDK-2/cyclinA,27.2 µM
same,IC50,CDK-4/cyclinD1,59.5 µM
same,IC50,CDK-5/P25,108 µM
same,IC50,CDK-5/P35,61.6 µM
same,IC50,CDK-6/cyclinD3,165 µM
same,IC50,CDK-9/cyclinT1,> 100 µM
same,IC50,OVCA432,10.7 µM
same,IC50,SKOV3,42.7 µM
same,"Neuroprotection against MPP+ (percent cell recovery, FIG. 2)",[3],neuroprotection of the cells
same,IC50,CDK-3/cyclinE [4],> 100 µM
"Cn1cc(C2=C(c3coc4ccccc34)C(=O)NC2=O)c2cc(Br)ccc21 [Compound 19, 3-Benzofuran-3-yl-4-(5-bromo-1-methyl-1H-indol-3-yl)-pyrrole-2,5-dione]",IC50,HER-1,> 10 µM
same,IC50,KDR,> 10 µM
same,IC50,Flt-3,> 10 µM
same,IC50,IGF-1R,> 10 µM
same,IC50,Tek,> 10 µM
same,IC50,c-src,> 10 µM
same,IC50,c-Met,> 10 µM
same,IC50,Ret,> 10 µM
same,IC50,JAK-2,> 10 µM
same,IC50,EphB4,> 10 µM
same,IC50,JNK1,> 10 µM
same,IC50,FGFR-3-K650E,> 10 µM
same,IC50,Axl,> 10 µM
same,IC50,FAK,> 10 µM
same,IC50,c-Abl,> 10 µM
same,IC50,c-Abl-T3151,> 10 µM
same,IC50,CDK2/A,3.98 µM
same,Ki,CDK2/A,189 nM
same,IC50,PDK1,> 10 µM
same,IC50,b-Raf-V599E,> 10 µM
same,IC50,PKCα,61.4 µM
same,Inhibition of hyperactivity produced by amphetamine/chlordiazepoxide (locomotor activity),C57BL/6J mice [5],inhibited the hyperactivity
same,IC50,"MIAPaCa-2; MIA PaCa-2, as reported in Gaisina et al. (2009) J. Med. Chem. 52(7), 1853-1863",30 ± 2.2 µM
same,IC50,"MIAPaCa-2; MIA PaCa-2, 72 hrs, MTS",30 µM
same,IC50,HupT3,43 ± 6.3 µM
same,IC50,OVCA432,33.6 µM
same,IC50,SKOV3,74.5 µM
same,Ability to pass the brain-blood barrier,[6],ability to pass the brain-blood barrier
"COCc1cccc2c(C3=C(c4coc5ccccc45)C(=O)NC3=O)cn(C)c12 [Compound 52, 3-Benzofuran-3-yl-4-(7-methoxymethyl-1-methyl-1H-indol-3-yl)-pyrrole-2,5-dione]",IC50,[1],0.23 ± 0.04 nM
same,IC50,CDK-2/cyclinE,3880 nM
same,IC50,CDK-1/cyclinB,8.53 µM
same,IC50,CDK-2/cyclinA,4.09 µM
same,IC50,CDK-4/cyclinD1,8.62 µM
same,IC50,CDK-5/P25,12.9 µM
same,IC50,CDK-5/P35,12.7 µM
same,IC50,CDK-6/cyclinD3,8.33 µM
same,IC50,CDK-9/cyclinT1,16 µM
same,IC50,CDK-3/cyclinE [2],17.7 µM
Nc1nnc(-c2cccc(Cl)c2Cl)c(N)n1 [lamotrigine],Block of CDP + amphetamine hyperactivity by mood stabilizers,C57BL/6J mice [7],blocked
same,Sensorimotor gating (prepulse inhibition),mice,improve sensorimotor gating
